# Earlier results as cited in US6703346B2, “Herbicide compositions comprising imidazolinone acid, methods of preparation, and methods of use” (Platte Chemical Co., priority 2001, dated 2004).
# Settings: general statement, no measurement described
row,Compound,pKa
1,CC(C)C1(C)N=C(c2nc3ccccc3cc2C(=O)O)NC1=O (stereo not drawn) [imazaquin],approximately 3.8
2,imazamethbenz,approximately 2.9
3,CCc1cnc(C2=NC(C)(C(C)C)C(=O)N2)c(C(=O)O)c1 (stereo not drawn) [imazethapyr],approximately 3.9
